The record followed here is patent US20240307351A1, “AGENT FOR ANTI-AGING OR FOR CELLULAR REJUVENATION” (TOHOKU UNIVERSITY, priority 2022, published 2024).

In assay [1] the test system is PPARγ Gene. The assay can be described thus: Quantitative PCR of PPARγ Gene in brown adipocytes of Ndufs4−/− mice. The assay is classed as in vivo, mouse. As to conditions: 10 mg/day per kg, 50 days, vs CMC administration group. As for the experimental part: Compound #5 was administered to NDUFS4 homozygous knockout mice (Ndufs4−/−mice) (4 weeks old) at a dose of 10 mg/day per kg of mouse weight for 50 days ([Compound #5 administration group]).
In addition, CMC (carboxymethylcellulose) was administered to NDUFS4 homozygous knockout mice (Ndufs4−/−mice) at a dose of 10 mg/day per kg of mouse weight for 50 days ([CMC administration group; Control group]).
Brown adipocytes were collected from the mice of [Compound #5 administration group] and [CMC administration group]. Total RNA was extracted from the brown adipocytes, and cDNA was prepared therefrom and used for measurement of mRNA expression level. The measurement was performed by a quantitative PCR method. The expression level of mRNA was determined with a relative ratio to β-actin used as an internal standard. As primers and probes, the following commercially available products (manufactured by Thermo Fisher Scientific Inc., and the like) were used. • Mouse Acts (actin beta, β-actin) Mm02619580_g1, Cat #4331182 • Mouse Ucp1 (uncoupling protein 1), Mm00494069_m1, Cat #4331182 • Mouse Pparg (PPARγ, peroxisome proliferator activated receptor gamma), Mm00440945_m1, Cat #4331182p • Mouse Fabp4 (fatty acid binding protein 4), Mm00445880_m1, Cat #4331182

Assay [2] concerns C57BL6 mice (92 weeks old). The assay can be described thus: Treadmill running test of aged mice. In kind it is in vivo, mouse. As to conditions: aged C57BL6 mice (92 weeks old), oral, 50 mg/kg/day, 2 months. As for the experimental part:
(§1) Water-suspended Compound #5 was orally administered to C57BL6 mice (92 weeks old) at a dose of 50 mg/kg/day per kg of mouse weight for 2 months ([MA5 addition group], n=5). After 2 months of oral administration, the mice were 101 weeks old.
(§2) In addition, water was orally administered to C57BL6 mice (92 weeks old) for 2 months ([Vehicle group], n=5). After 2 months of oral administration, the mice were 101 weeks old.

The subject of assay [3] is muscle cells of young mice. The assay can be described thus: RNA-Seq, pathway and ChIP-Atlas analysis of muscle cells of young mice. In kind it is in vivo, mouse. As to conditions: oral, 50 mg/kg/day, 2 months. As for the experimental part:
Water-suspended Compound #5 was orally administered to C57BL6 mice (12 weeks old) at a dose of 50 mg/kg/day per kg of mouse weight for 2 months ([MA5 addition group], n=5). After 2 months of oral administration, the mice were 20 weeks old.
In addition, water was orally administered to C57BL6 mice (12 weeks old) for 2 months ([Vehicle group], n=5). After 2 months of oral administration, the mice were 20 weeks old.
RNA sequencing (RNA-Seq) analysis was performed on the muscle cells of the young mice in [MA5 addition group] and [Vehicle group] to identify genes whose expression levels changed (increased or decreased) in [MA5 addition group] and [Vehicle group] compared to the muscle cells of young mice before administration. The results are illustrated in FIG. 16.
Based on the names of genes whose expression levels increased or decreased in the young mice of [MA5 addition group] as compared with the young mice of [Vehicle group] in the RNA sequence (RNA-Seq) analysis, pathway analysis of genes whose expression levels varied in [MA5 addition group] was performed. The results are illustrated in FIG. 17. […]

In assay [4] the test system is liver cells of aged mice. The assay can be described thus: RNA-Seq and ChIP-Atlas analysis of liver cells of aged mice. In kind it is in vivo, mouse. As to conditions: oral, 50 mg/kg/day, 2 months, Table 4. The method, then:
as §1, §2
RNA sequencing (RNA-Seq) analysis was performed on the liver cells of aged mice in [MA5 addition group] and [Vehicle group] to identify genes whose expression levels changed (increased or decreased) in [MA5 addition group] as compared with the […]. Using the results of these gene names, integrated analysis with ChIP-Atlas was performed to investigate transcription factors possibly related to these genes.

The test system of assay [5] is cochlear cells of the inner ear of wild-type mice. The assay can be described thus: RNA-Seq and ChIP-Atlas analysis of cochlear cells of wild-type mice. The assay is classed as in vivo, mouse. As to conditions: wild-type C57BL6 mice, oral, 50 mg/kg/day, 2 weeks, Table 6. As for the experimental part:
Water-suspended Compound #5 was orally administered to C57BL6 mice (6 weeks old) at a dose of 50 mg/kg/day per kg of mouse weight for 2 weeks ([MA5 addition group], n=5).
In addition, water was orally administered to C57BL6 mice (6 weeks old) for […] ([Vehicle group], n=5).
RNA sequence (RNA-Seq) analysis was performed on cochlear cells of the inner ear of wild-type mice of [MA5 addition group] and [Vehicle group] described above, and genes whose expression levels changed (increased or decreased) in [MA5 addition group] as compared with [Vehicle group] were identified. Using the results of these gene names, integrated analysis with ChIP-Atlas was performed to investigate transcription factors possibly related to these genes.

The test system of assay [6] is α-Klotho gene-deficient mice. Kind of assay: Survival rate of α-Klotho gene-deficient mice (Kaplan-Meier). Particulars: oral, 10 mg/kg mouse weight/day from 28 days old until death. In kind it is in vivo. As for the experimental part: Water-suspended Compound #5 was orally administered to α-Klotho gene-deficient mice (28 days old) as a premature aging animal model at a dose of 10 mg/kg mouse weight/day, the progress was observed until death, and the survival rate was evaluated from a survival curve based on the Kaplan-Meier method (Klotho homo KO mouse administration group, n=9).
In addition, water was orally administered to α-Klotho gene-deficient mice (28 days old) until death (Klotho homo KO mouse non-administered group, n=9).

The subject of assay [7] is fibrosis-related genes (aSMA and Colla1). Kind of assay: Real-time PCR of fibrosis-related genes in renal tissue of α-Klotho gene-deficient mice. The assay is classed as in vivo. Particulars: oral, 10 mg/kg mouse weight/day, 28 to 60 days old. The method, then:
Water-suspended Compound #5 was orally administered to α-Klotho gene-deficient mice (28 days old) at a dose of 10 mg/kg mouse weight/day until 60 days old (Klotho homo KO mouse administration group, n=3).
In addition, water was orally administered to wild-type mice (28 days old) and α-Klotho gene-deficient mice (28 days old) until 60 days old (n=3 for each of the wild-type non-administrated group and the Klotho homo KO mouse non-administrated group).
Renal tissue was collected from each 60-day-old mouse according to a standard method, total RNA was extracted using a commercially available column extraction kit (RNeasy Micro Kit, manufactured by QIAGEN), and cDNA was synthesized from 1 μg of total RNA using ReverTra Ace(manufactured by TOYOBO CO., Ltd.). Thereafter, to quantify mRNA derived from two types of fibrosis-related genes (aSMA and Colla1) and mRNA derived from GAPDH as an internal standard, real-time PCR was performed according to a standard method using QuantStudio 5 Real-time PCR system (manufactured by Applied Biosystems) as a measuring instrument and THUNDERBIRD SYBR qPCR MasterMix (manufactured by TOYOBO CO., Ltd.) as a reaction liquid.
(In general: Real-time PCR tracks product formation cycle by cycle.)

`O=C(CC(C(=O)O)c1c[nH]c2ccccc12)c1ccc(F)cc1F` (stereo not drawn) [Compound #5, 4-(2,4-difluorophenyl)-2-(1H-indole-3-yl)-4-oxo-butanoic acid]: in assay [1], the “expression of PPARγ Gene” value is on record as “significantly higher”. Besides, in assay [2], the “running time on a treadmill” value is listed as “not reduced”. In addition, in assay [2] (compared to Vehicle group), the “time until exhaustion (percentage of mice that continue running)” value was “significantly improved”. Moreover, the “expression levels of genes related to differentiation, development, and the like of muscles such as Tbx1 Gene” value in assay [3] is “increased”. Besides, the “transcription factors related to the genes whose expression increased (ChIP-Atlas)” value in assay [3] (Table 2) was “SUZ^12 and EZH2”; in assay [5] it was “SUZ^12 and EZH2”. The “transcription factors related to genes whose expression increased (ChIP-Atlas)” value in assay [4] was “FOXO1 known as longevity genes and PPARA”. In assay [6], the survival rate result was “significantly increased”. The “renal fibrosis progressing with aging (aSMA and Colla1 mRNA)” value in assay [7] was “inhibited”.
